Data on twelve compounds can be found in US6136992A, “2-alkoxy estradiols and derivatives thereof” (The United States of America as represented by the …, priority 1998, dated 2000).

For one series, the target named is T1, estrogen receptor (Rattus norvegicus, UniProt P06211).
T1 construct: from tissue; host or cells: rat uterine cytosol
T1 sequence (P06211 1-600): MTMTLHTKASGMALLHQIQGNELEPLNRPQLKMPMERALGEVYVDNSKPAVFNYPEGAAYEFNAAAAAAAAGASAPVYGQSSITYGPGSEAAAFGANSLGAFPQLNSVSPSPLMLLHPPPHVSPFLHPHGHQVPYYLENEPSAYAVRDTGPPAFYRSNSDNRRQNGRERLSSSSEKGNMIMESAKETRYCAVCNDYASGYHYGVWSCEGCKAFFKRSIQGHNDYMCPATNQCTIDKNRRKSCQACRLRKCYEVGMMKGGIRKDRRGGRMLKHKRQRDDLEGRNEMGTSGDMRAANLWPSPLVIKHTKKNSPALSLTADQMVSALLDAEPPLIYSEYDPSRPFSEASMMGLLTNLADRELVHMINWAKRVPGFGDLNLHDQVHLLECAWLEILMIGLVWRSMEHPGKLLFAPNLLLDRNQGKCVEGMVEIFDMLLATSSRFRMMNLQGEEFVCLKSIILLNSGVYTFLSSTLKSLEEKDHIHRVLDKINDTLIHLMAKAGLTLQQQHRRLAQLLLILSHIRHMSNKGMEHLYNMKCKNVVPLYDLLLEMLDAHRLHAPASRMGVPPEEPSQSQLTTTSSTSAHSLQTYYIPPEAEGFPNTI
The series can be described thus: Estrogen binding affinity assay (comparative radiometric binding, rat uterine cytosol). To be noted: for RBA (relative binding affinity): 0° C., estradiol = 100. The method, then:
The assay of (11), (12) and (16) were conducted at 0° C. for 20 hours, while those for (1) and (2) were performed at 0° C. for 18 hours.

Another series has as its system solid tumors. To be noted: cited from earlier work.
Another series has as its system tubulin. The series can be described thus: Inhibition of tubulin polymerization (turbidimetry at 350 nm). Conditions: for IC50: 26° C., 20 min, read-out: Inhibn of Tubulin Polymn IC50. The series is classed as biochemical, bovine. As to the method:
Four instruments were used, and two control reaction mixtures were present in each experiment. […] IC50 values were determined graphically. […]
Inhibition of tubulin polymerization was investigated using electrophoretically homogeneous tubulin from bovine brain.

Series [1] relates to SF-539 central nervous system (CNS) cancer cells. Put plainly: NCI in vitro anticancer screen, SF-539 CNS cancer. The series is classed as cell-based. To be noted: Homo sapiens, read-out: cytotoxicity GI50, CNS SF-539. The text has this: (§1) The effects of the analogs on cancer cell growth was investigated in the National Cancer Institute (NCI) Developmental Therapeutics Program's in vitro panel of approximately 55 cell lines (Grever et al., Seminars in Oncology 19:622 (1992), Alley et al., Cancer Research 48:589 (1988) and Montes et al., J. National Cancer Institute 83:757 (1991)). Representative results are listed in Table 1 for HOP-62 non-small-cell lung cancer cells, HCT-116 colon cancer cells, SF-539 central nervous system (CNS) cancer cells, UACC-62 melanoma cells, OVCAR ovarian cancer cells, SN12-C renal cancer cells, DU-145 prostate cancer cells, and MDA-MB-435 breast cancer cells.
(§2) ^a The cytotoxicity GI50 values are the concentrations

Series [2] concerns HOP-62 non-small-cell lung cancer cells. The series can be described thus: NCI in vitro anticancer screen, HOP-62 non-small-cell lung cancer. The series is classed as cell-based. Conditions: Homo sapiens, HOP-62, read-out: cytotoxicity GI50, Lung HOP-62.
Source text: as §1, §2

A further series deals with UACC-62 melanoma cells. Put plainly: NCI in vitro anticancer screen, UACC-62 melanoma. The series is classed as cell-based. To be noted: Homo sapiens, UACC-62, read-out: cytotoxicity GI50, Melanoma UACC-62.
Source text: as §1, §2

The subject of series [3] is HCT-116 colon cancer cells. Put plainly: NCI in vitro anticancer screen, HCT-116 colon cancer. The series is classed as cell-based. To be noted: Homo sapiens, HCT-116, read-out: cytotoxicity GI50, Colon HCT-116.
Source text: as §1, §2

Series [4] has as its system OVCAR ovarian cancer cells. The series can be described thus: NCI in vitro anticancer screen, OVCAR ovarian cancer. Type of series: cell-based. Conditions: Homo sapiens, read-out: cytotoxicity GI50, Ovarian OVCAR.
Source text: as §1, §2

Series [5] has as its system MDA-MB-435 breast cancer cells. Put plainly: NCI in vitro anticancer screen, MDA-MB-435 breast cancer. Type of series: cell-based. Conditions: Homo sapiens, MDA-MB-435, read-out: cytotoxicity GI50, Breast MDA-MB-435. From the text:
The effects of the analogs on cancer cell growth was investigated in the National Cancer Institute (NCI) Developmental Therapeutics Program's in vitro panel of approximately 55 cell lines (Grever et al., Seminars in Oncology 19:622 (1992), Alley et al., Cancer Research 48:589 (1988) and Montes et al., J. National Cancer Institute 83:757 (1991)).

In series [6] the test system is DU-145 prostate cancer cells. The series can be described thus: NCI in vitro anticancer screen, DU-145 prostate cancer. Type of series: cell-based. To be noted: Homo sapiens, DU-145, read-out: cytotoxicity GI50, Prostate DU-145.
Source text: as §1, §2

The subject of series [7] is SN12-C renal cancer cells. The series can be described thus: NCI in vitro anticancer screen, SN12-C renal cancer. The series is classed as cell-based. Conditions: Homo sapiens, SN12C, read-out: cytotoxicity GI50, Renal SN12-C.
Source text: as §1, §2

In series [8] the test system is all human cancer cell lines (approximately 55). Put plainly: NCI in vitro anticancer screen, all cell lines. The series is classed as cell-based.
Source text: as §1
^b Mean graph midpoint for all human cancer cell lines (approximately

Setting [9] is: approximately 55 cell lines, read-out: MGM (mean graph midpoint for all human cancer cell lines), GI50.
The mark [10] stands for this setting: read-out: MGM (mean graph midpoint for all human cancer cell lines), GI50.

Counter-ions that a name gives are not always drawn. Like-named read-outs stand apart in the source and are kept apart here.

As for `COc1cc2c(cc1O)CC[C@@H]1[C@@H]2CC[C@]2(C)[C@@H](O)CC[C@@H]12` [Compound 1, 2-methoxy estradiol, reference compound], the “RBA (relative binding affinity)” value on estrogen receptor (18 hours) is 0.245. Besides, the “inhibition of neovascularization and growth of solid tumors in mice” value in the series on solid tumors was “potent inhibitor of neovascularization of solid tumors and inhibits their growth”. Also, in the series with solid tumors (mice), the “signs of toxicity at tumor-inhibiting doses” value is reported as “no apparent signs of toxicity”. In addition, in the series on tubulin, the IC50 was 2.9 µM.

In the case of `CCOc1cc2c(cc1O)CC[C@@H]1[C@@H]2CC[C@]2(C)[C@@H](O)CC[C@@H]12` [Compound 2, 2-ethoxy estra-1,3,5(10)-trien-3,17β-diol], in the series with tubulin, the IC50 worked out at 0.91 µM. In addition, in the series with tubulin (comparison with 2-methoxy estradiol (1) or 2-ethoxy estradiol (2)), the “inhibition of tubulin polymerization, relative activity in words” value is “over three times more active than 2-methoxy estradiol (1)”.

Consider `C[C@]12CC[C@@H]3c4cc(OCC(F)(F)F)c(O)cc4CC[C@H]3[C@@H]1CC[C@@H]2O` [Compound 3, 2-(2',2',2'-trifluoroethoxy)estra-3,17β-diol], for which the IC50 in the series with tubulin is 1.7 µM.

Turning to `CC(=O)Oc1cc2c(cc1OCC(F)(F)F)[C@H]1CC[C@]3(C)[C@@H](OC(C)=O)CC[C@H]3[C@@H]1CC2=O` [Compound 6, 2-(2',2',2'-Trifluoroethoxy)-3,17β-Diacetyloxy-Estra-6-Oxo-1,3,5(10)-Triene], the concentration for 50% growth inhibition (GI50) in [1] is 5.11 µM; in series [2] it was 8.7 µM; in the series on UACC-62 melanoma cells, 3.33 µM; in [3] it was 3.71 µM; in series [4], 3.52 µM; in [5] it was 26.5 µM. The GI50 in series [6] came to 15 µM; in series [7], 23.5 µM; in [8] (setting [9]), 9.77 µM. The IC50 in the series with tubulin is 6 µM.

For `CCOc1cc2c(cc1OC(C)=O)C(=O)C[C@@H]1[C@@H]2CC[C@]2(C)[C@@H](OC(C)=O)CC[C@@H]12` [Compound 7, 2-Ethoxy-3,17β-Diacetoxy-6-Oxoestra-1,3,5(10)-triene], the GI50 was found to be 22.6 µM in [1]; 20 µM in [2]; 17.7 µM in the series with UACC-62 melanoma cells; 21.1 µM in [3]; 23.7 µM in [4]; 18.4 µM in series [5]. For the same compound, the figures for the concentration for 50% growth inhibition (GI50) in series [6], in series [7] and in series [8] (setting [9]) were 19.8 µM, 19.8 µM and 19.5 µM, respectively. In the series with tubulin, the half-maximal inhibitory concentration (IC50) was above 40 µM.

Regarding `CCOc1cc2c(cc1O)C(=O)C[C@@H]1[C@@H]2CC[C@]2(C)[C@@H](O)CC[C@@H]12` [Compound 10, 2-Ethoxy-6-Oxoestra-1,3,5(10)-Triene-3,17β-Diol], the GI50 is 0.71 µM in series [1]; 0.03 µM in series [2]; 0.01 µM in the series on UACC-62 melanoma cells; 0.02 µM in series [3]; 0.63 µM in [4]; below 0.01 µM in series [5]. For the same compound, the GI50 was determined as 0.17 µM in [6], 0.18 µM in series [7] and 0.13 µM in [8] (setting [10]). Besides, the IC50 in the series with tubulin came to 4.8 µM.

For the compound `CCOc1cc2c(cc1O)C(=NO)C[C@@H]1[C@@H]2CC[C@]2(C)[C@@H](O)CC[C@@H]12` [Compound 11, 2-Ethoxy-6-Hydroximinoestra-1,3,5(10)-Triene-3,17β-Diol], the GI50 (in [2]; with UACC-62 melanoma cells; in [3]; in series [4]; in [5]; in series [6]) was below 0.01 µM in each case. In addition, the 50% growth inhibitory concentration (GI50) is below 0.01 µM in series [7], below 0.01 µM in series [8] (read-out: GI50) and 0.04 µM in series [8] (setting [10]). For the same compound, the “affinity for the estrogen receptor, in words” value at estrogen receptor is on record as “no affinity for the estrogen receptor”. Besides, the “RBA (relative binding affinity)” value on estrogen receptor (20 hours) is below 0.001. For the same compound, in the series on tubulin, the IC50 was found to be 0.62 µM.

Take `CCOc1cc2c(cc1O)C(=NN)C[C@@H]1[C@@H]2CC[C@]2(C)[C@@H](O)CC[C@@H]12` [Compound 13, 2-Ethoxy-6-Hydrazone-estra-1,3,5(10)-Triene-3,17β-Diol]: the 50% growth inhibitory concentration (GI50) in [1] is 2.76 µM; in series [2] it was 1.18 µM; in the series with UACC-62 melanoma cells it was 0.88 µM; in series [3] it was 2.12 µM; in [4] it was 5.43 µM; in series [5], 6.5 µM. Further, the GI50 was 17 µM in [6], 16.8 µM in series [7] and 4.17 µM in series [8] (setting [9]). In addition, the IC50 in the series with tubulin came out at 15 µM.

As to `CCOc1cc2c(cc1O)[C@@H](O)C[C@@H]1[C@@H]2CC[C@]2(C)[C@@H](O)CC[C@@H]12` [Compound 14, 2-Ethoxyestra-1,3,5(10)-Triene-3,6α,17β-Triol], the 50% growth inhibitory concentration (GI50) stood at 0.28 µM in the series with UACC-62 melanoma cells; 0.35 µM in series [3]; 0.35 µM in series [4]; 5.39 µM in [5]; 0.71 µM in [6]; 0.66 µM in series [7]. The 50% growth inhibitory concentration (GI50) in series [8] (setting [9]) was determined as 0.83 µM. Moreover, the concentration for half-maximal inhibition (IC50) in the series with tubulin was determined as 2.5 µM.

`CCOc1cc2c(cc1O)C(=NNS(=O)(=O)c1ccc(C)cc1)C[C@@H]1[C@@H]2CC[C@]2(C)[C@@H](O)CC[C@@H]12` [Compound 15, 2-Ethoxy-6-Tosylhydrazone-Estra-1,3,5(10)-Triene-3,17β-Diol]: the 50% growth inhibitory concentration (GI50) in [1] is 3.45 µM; in series [2] it was 5.14 µM; in series [3] it was 6.67 µM; in [4], 3.18 µM; in [6] it was 14.9 µM; in series [7], 12.1 µM. For the same compound, in series [8] (setting [9]), the GI50 came to 6.16 µM. The IC50 in the series on tubulin is above 40 µM.

With `CCOc1cc2c(cc1O)C(=NOC)C[C@@H]1[C@@H]2CC[C@]2(C)[C@@H](O)CC[C@@H]12` [Compound 16, 2-Ethoxy-6-(O-Methyl)hydroximino-Estra-1,3,5(10)-Triene-3,17β-Diol], the concentration for 50% growth inhibition (GI50) in series [2] was below 0.01 µM; in the series with UACC-62 melanoma cells, below 0.01 µM; in series [3] it was below 0.01 µM; in series [4], below 0.01 µM; in [5] it was 0.02 µM; in series [6] it was 0.32 µM. Also, the concentration for 50% growth inhibition (GI50) came to 0.26 µM in series [7] and 0.24 µM in series [8] (setting [10]). At estrogen receptor, the “affinity for the estrogen receptor, in words” value is “no affinity for the estrogen receptor”. Moreover, on estrogen receptor (20 hours), the “RBA (relative binding affinity)” value was below 0.001. For the same compound, the IC50 with tubulin turned out to be 0.75 µM.

As for `CCOc1cc2c(cc1O)CC[C@@H]1[C@@H]2CC[C@]2(C)C(N)CC[C@@H]12` (stereo partly drawn) [Compound 20, 2-Ethoxy-3-Hydroxy-17-α/β-Aminoestra-1,3,5(10)-Triene Hydrochloride], the GI50 in series [1] amounted to 3.99 µM; in series [2], 10.9 µM; with UACC-62 melanoma cells, 3.61 µM; in [3], 3.15 µM; in series [4], 1.25 µM; in series [5] it was 1.74 µM. Moreover, the 50% growth inhibitory concentration (GI50) in [6] is 1.93 µM; in series [7], 5.24 µM; in series [8] (setting [9]), 3.31 µM. Moreover, in the series on tubulin, the IC50 is above 40 µM.

Usually IC50 stands for the concentration needed to halve the response being measured. By GI50 is commonly meant the concentration at which growth is held to half of that of the control.
